Results taken from EP1433789A1, “Pyrrolopyrazines and their use as selective apoptosis inducers” (Aponetics AG, priority 2002, dated 2004).

What was measured:
A20 = assay: Hoechst 33342 nuclear staining (Table 3); format: cell-based, mouse; design: key: 0 relating to no activity; 1 relating to weak activity comprising less than 50% of the cells; score 2 relating to strong activity comprising more than 50% of the cells
Method: This assay is performed in 96 well tissue culture plates. Appropriate number of cells (adherent cells: 3 - 5*10^3, suspension cells: 8 - 10*10^3) are being seeded out in 80 µl complete medium. Adherent cells are incubated for 24 h for proper spreading out before addition of test compounds while suspension cells are immediately treated with test compounds after seeding out. The test compounds are added in 20 µl complete medium containing max 5% DMSO. The final compound concentrations in the assays are 10 µM, 3 µM,1 µM and 0.3 µM, respectively. After 24 h or 48 h incubation at culture conditions, 10 µl medium containing Hoechst 33342 dye (Sigma B-2261) at 2-5 µg/ml are added to each well. The assay plates are then further incubated for 30 minutes and subsequently analyzed with a standard inverted fluorescence microscope. The readout allows the determination of the fraction of apoptotic nuclei as well as other morphological criteria specific for apoptosis as a function of the treatment. The following scores are used: 0 relating to no activity, 1 relating to weak activity comprising less than 50% of the cells and score 2 relating to strong activity comprising more than 50% of the cells.

HeLa [1] = assay: AnnexinV/7-AAD staining; format: cell-based, human; conditions: 10 µM, 24 h treatment
Method in brief: (§1)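 Cells treated with compound at 10 µM final for 24 h, then stained with AnnexinV-GST/anti-GST Alexa 488 and 7-AAD and analysed by flow cytometry. Percent positive cells scored as 0 (<10%), 1 (10–50%) or 2 (>50%).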

Jurkat [2] = assay: AnnexinV/7-AAD staining; format: cell-based, human; conditions: 10 µM, 24 h treatment
Method in brief: as §1

Ramos [3] = assay: AnnexinV/7-AAD staining; format: cell-based, human; conditions: 10 µM, 24 h treatment
Method in brief: as §1

Jurkat [4] = assay: PI staining for cell cycle distribution; format: cell-based, human; design: key: 0 indicates no occurrence at all; 1 for weak; 2 for strong occurrence; conditions: Jurkat 3 uM, 24 h
Method in brief: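 Cells were seeded 24 h before treatment, then exposed 24 h to compound at 3 µM or 10 µM final. After ethanol fixation they were stained with 50 µg/ml PI for 30 min at 37°C and analysed by flow cytometry. SubG1 peak and G2M arrest were each scored 0 (none), 1 (weak) or 2 (strong).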

HBL 100 = assay: Hoechst 33342 nuclear staining (Table 3); format: cell-based, human; design: key: 0 relating to no activity; 1 relating to weak activity comprising less than 50% of the cells; score 2 relating to strong activity comprising more than 50% of the cells
Method in brief: (§2)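 Adherent cells (3-5×10^3, pre-spread 24 h) or suspension cells (8-10×10^3) treated with compounds at 10, 3, 1 and 0.3 µM for 24 or 48 h, then Hoechst 33342 stained for 30 min. Apoptotic nuclear morphology scored by fluorescence microscopy: 0 none, 1 weak (<50% cells), 2 strong (>50% cells).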

HT 1080 = assay: Hoechst 33342 nuclear staining (Table 3); format: cell-based, human; design: key: 0 relating to no activity; 1 relating to weak activity comprising less than 50% of the cells; score 2 relating to strong activity comprising more than 50% of the cells
Method in brief: as §2

Ramos [5] = assay: Hoechst 33342 nuclear staining (Table 3); format: cell-based, human; design: key: 0 relating to no activity; 1 relating to weak activity comprising less than 50% of the cells; score 2 relating to strong activity comprising more than 50% of the cells
Method in brief: as §2

HeLa [6] = assay: MTS proliferation assay; format: cell-based; conditions: Homo sapiens, 72 h incubation
Method: (§3) The assay is performed in 96 well tissue culture plates. The cells (range : 1.5*10^3-10^4) are seeded out in 80 µl complete medium 24 h prior to compound treatment. The test compounds are added in 20 µl complete medium containing max 5% DMSO. The final compound concentrations in the assays are 10 µM, 3 µM,1 µM and 0.3 µM, respectively. The assay plates are incubated for 72 h at culture conditions. The MTS reagent is prepared according to the manufacturer's protocol (Promega G1111 ). 20 µl MTS reagent are added to each well, the assay plates are quickly spun and incubated for another 3 h at culture conditions. Subsequently, the plates are shortly shaked and absorption measured with a microplate-reader at 492 nm.

Jurkat [7] = assay: MTS proliferation assay; format: cell-based; conditions: Homo sapiens, 72 h incubation
Method: as §3

K562 = assay: MTS proliferation assay; format: cell-based; conditions: Homo sapiens, K562, 72 h incubation
Method: as §3

COc1cc2c(cc1OC)-c1c(Br)c3nc4ccccc4nc3n1C(C)C2 (centres unmarked) [compound 10]
Hoechst 33342 nuclear staining (A20; A20, 24h, conc 0.3 (µM)): 0
Hoechst 33342 nuclear staining (A20; A20, 24h, conc 1 (µM)): 0
Hoechst 33342 nuclear staining (A20; A20, 24h, conc 3 (µM)): 0
Hoechst 33342 nuclear staining (A20; A20, 24h, conc 10 (µM)): 2 (score 2 relating to strong activity comprising more than 50% of the cells)
Hoechst 33342 nuclear staining (A20; A20, 48h, conc 0.3 (µM)): 0
Hoechst 33342 nuclear staining (A20; A20, 48h, conc 1 (µM)): 0
Hoechst 33342 nuclear staining (A20; A20, 48h, conc 3 (µM)): 2 (score 2 relating to strong activity comprising more than 50% of the cells)
percentage of positively stained cells (AnnexinV/7-AAD staining) (HeLa [1]): 2 (score 2 relates to more than 50% positivity)
percentage of positively stained cells (AnnexinV/7-AAD staining) (Jurkat [2]): 2 (score 2 relates to more than 50% positivity)
percentage of positively stained cells (AnnexinV/7-AAD staining) (Ramos [3]): 2 (score 2 relates to more than 50% positivity)
G2M (increase of the cell population arrested in G2M phase) (Jurkat [4]): 0
subG1 (generation of a subG1 peak indicative for DNA fragmentation) (Jurkat [4]): 0
Hoechst 33342 nuclear staining (fraction of apoptotic nuclei), score (HBL 100; HBL 100, 24h, 0.3 µM): 1 (1 relating to weak activity comprising less than 50% of the cells)
Hoechst 33342 nuclear staining (fraction of apoptotic nuclei), score (HBL 100; HBL 100, 24h, 1 µM): 2 (score 2 relating to strong activity comprising more than 50% of the cells)
Hoechst 33342 nuclear staining (fraction of apoptotic nuclei), score (HBL 100; HBL 100, 24h, 3 µM): 2 (score 2 relating to strong activity comprising more than 50% of the cells)
Hoechst 33342 nuclear staining (fraction of apoptotic nuclei), score (HBL 100; HBL 100, 24h, 10 µM): 2 (score 2 relating to strong activity comprising more than 50% of the cells)
Hoechst 33342 nuclear staining (fraction of apoptotic nuclei), score (HBL 100; HBL 100, 48h, 0.3 µM): 2 (score 2 relating to strong activity comprising more than 50% of the cells)
Hoechst 33342 nuclear staining (fraction of apoptotic nuclei), score (HBL 100; HBL 100, 48h, 1 µM): 2 (score 2 relating to strong activity comprising more than 50% of the cells)
Hoechst 33342 nuclear staining (fraction of apoptotic nuclei), score (HBL 100; HBL 100, 48h, 3 µM): 2 (score 2 relating to strong activity comprising more than 50% of the cells)
Hoechst 33342 nuclear staining (fraction of apoptotic nuclei), score (HBL 100; HBL 100, 48h, 10 µM): 2 (score 2 relating to strong activity comprising more than 50% of the cells)
Hoechst 33342 nuclear staining (fraction of apoptotic nuclei), score (HT 1080; HT 1080, 24h, 0.3 µM): 0
Hoechst 33342 nuclear staining (fraction of apoptotic nuclei), score (HT 1080; HT 1080, 24h, 1 µM): 1 (1 relating to weak activity comprising less than 50% of the cells)
Hoechst 33342 nuclear staining (fraction of apoptotic nuclei), score (HT 1080; HT 1080, 24h, 3 µM): 2 (score 2 relating to strong activity comprising more than 50% of the cells)
Hoechst 33342 nuclear staining (fraction of apoptotic nuclei), score (HT 1080; HT 1080, 24h, 10 µM): 2 (score 2 relating to strong activity comprising more than 50% of the cells)
Hoechst 33342 nuclear staining (fraction of apoptotic nuclei), score (HT 1080; HT 1080, 48h, 0.3 µM): 0
Hoechst 33342 nuclear staining (fraction of apoptotic nuclei), score (HT 1080; HT 1080, 48h, 1 µM): 2 (score 2 relating to strong activity comprising more than 50% of the cells)
Hoechst 33342 nuclear staining (fraction of apoptotic nuclei), score (HT 1080; HT 1080, 48h, 3 µM): 2 (score 2 relating to strong activity comprising more than 50% of the cells)
Hoechst 33342 nuclear staining (fraction of apoptotic nuclei), score (HT 1080; HT 1080, 48h, 10 µM): 2 (score 2 relating to strong activity comprising more than 50% of the cells)
Hoechst 33342 nuclear staining (Ramos [5]; 24h, conc 0.3 (µM)): 0
Hoechst 33342 nuclear staining (Ramos [5]; 24h, conc 1 (µM)): 0
Hoechst 33342 nuclear staining (Ramos [5]; 24h, conc 3 (µM)): 0
Hoechst 33342 nuclear staining (Ramos [5]; 24h, conc 10 (µM)): 2 (score 2 relating to strong activity comprising more than 50% of the cells)
Hoechst 33342 nuclear staining (Ramos [5]; 48h, conc 0.3 (µM)): 0
Hoechst 33342 nuclear staining (Ramos [5]; 48h, conc 1 (µM)): 2 (score 2 relating to strong activity comprising more than 50% of the cells)
Hoechst 33342 nuclear staining (Ramos [5]; 48h, conc 3 (µM)): 2 (score 2 relating to strong activity comprising more than 50% of the cells)
Hoechst 33342 nuclear staining (Ramos [5]; 48h, conc 10 (µM)): 2 (score 2 relating to strong activity comprising more than 50% of the cells)
IC50 (HeLa [6]): 1 to 10 µM
IC50 (Jurkat [7]): > 10 µM
IC50 (K562): > 10 µM

CC1Cc2ccccc2-c2c(Cl)c3nc4ccccc4nc3n21 (centres unmarked) [compound 11]
Hoechst 33342 nuclear staining (A20; A20, 24h, conc 1 (µM)): 0
Hoechst 33342 nuclear staining (A20; A20, 24h, conc 3 (µM)): 0
Hoechst 33342 nuclear staining (A20; A20, 24h, conc 10 (µM)): 0
Hoechst 33342 nuclear staining (A20; A20, 48h, conc 0.3 (µM)): 0
Hoechst 33342 nuclear staining (A20; A20, 48h, conc 1 (µM)): 0
Hoechst 33342 nuclear staining (A20; A20, 48h, conc 3 (µM)): 0
Hoechst 33342 nuclear staining (A20; A20, 48h, conc 10 (µM)): 2 (score 2 relating to strong activity comprising more than 50% of the cells)
percentage of positively stained cells (AnnexinV/7-AAD staining) (HeLa [1]): 1 (score 1 relates to more than 10% but less than 50%)
percentage of positively stained cells (AnnexinV/7-AAD staining) (Jurkat [2]): 0 (Score 0 relates to less than 10%)
percentage of positively stained cells (AnnexinV/7-AAD staining) (Ramos [3]): 2 (score 2 relates to more than 50% positivity)
G2M (increase of the cell population arrested in G2M phase) (Jurkat [4]): 0
subG1 (generation of a subG1 peak indicative for DNA fragmentation) (Jurkat [4]): 0
IC50 (HeLa [6]): > 10 µM
IC50 (Jurkat [7]): > 10 µM
IC50 (K562): > 10 µM

COc1cc2c(cc1OC)-c1c(Cl)c3nc4ccccc4nc3n1C(C)C2 (centres unmarked) [compound 12]
Hoechst 33342 nuclear staining (A20; A20, 24h, conc 0.3 (µM)): 0
Hoechst 33342 nuclear staining (A20; A20, 24h, conc 1 (µM)): 0
Hoechst 33342 nuclear staining (A20; A20, 24h, conc 3 (µM)): 0
Hoechst 33342 nuclear staining (A20; A20, 24h, conc 10 (µM)): 0
Hoechst 33342 nuclear staining (A20; A20, 48h, conc 0.3 (µM)): 0
Hoechst 33342 nuclear staining (A20; A20, 48h, conc 1 (µM)): 0
Hoechst 33342 nuclear staining (A20; A20, 48h, conc 3 (µM)): 0
Hoechst 33342 nuclear staining (A20; A20, 48h, conc 10 (µM)): 2 (score 2 relating to strong activity comprising more than 50% of the cells)
percentage of positively stained cells (AnnexinV/7-AAD staining) (HeLa [1]): 2 (score 2 relates to more than 50% positivity)
percentage of positively stained cells (AnnexinV/7-AAD staining) (Jurkat [2]): 2 (score 2 relates to more than 50% positivity)
percentage of positively stained cells (AnnexinV/7-AAD staining) (Ramos [3]): 2 (score 2 relates to more than 50% positivity)
G2M (increase of the cell population arrested in G2M phase) (Jurkat [4]): 0
subG1 (generation of a subG1 peak indicative for DNA fragmentation) (Jurkat [4]): 0
IC50 (HeLa [6]): > 10 µM
IC50 (Jurkat [7]): > 10 µM
IC50 (K562): > 10 µM

CCC1Cc2cc(OC)c(OC)cc2-c2cc3nc4ccccc4nc3n21 (centres unmarked) [compound 13]
Hoechst 33342 nuclear staining (A20; A20, 24h, conc 0.3 (µM)): 0
Hoechst 33342 nuclear staining (A20; A20, 24h, conc 1 (µM)): 0
Hoechst 33342 nuclear staining (A20; A20, 24h, conc 3 (µM)): 0
Hoechst 33342 nuclear staining (A20; A20, 24h, conc 10 (µM)): 0
Hoechst 33342 nuclear staining (A20; A20, 48h, conc 0.3 (µM)): 0
Hoechst 33342 nuclear staining (A20; A20, 48h, conc 1 (µM)): 0
Hoechst 33342 nuclear staining (A20; A20, 48h, conc 3 (µM)): 0
Hoechst 33342 nuclear staining (A20; A20, 48h, conc 10 (µM)): 0
percentage of positively stained cells (AnnexinV/7-AAD staining) (HeLa [1]): 1 (score 1 relates to more than 10% but less than 50%)
percentage of positively stained cells (AnnexinV/7-AAD staining) (Jurkat [2]): 2 (score 2 relates to more than 50% positivity)
percentage of positively stained cells (AnnexinV/7-AAD staining) (Ramos [3]): 2 (score 2 relates to more than 50% positivity)
G2M (increase of the cell population arrested in G2M phase) (Jurkat [4]): 0
subG1 (generation of a subG1 peak indicative for DNA fragmentation) (Jurkat [4]): 0
IC50 (HeLa [6]): > 10 µM
IC50 (Jurkat [7]): 1 to 10 µM
IC50 (K562): > 10 µM
